These results are taken from patent publication US20180116216A1, “MICROBICIDAL COMPOSITION CONTAINING GLUTARALDEHYDE AND ORTHOPHENYLPHENOL” (Dow Global Technologies LLC, priority 2015, published 2018).

Where two headings read alike, the source gives them in different places.

The test system of this test is Bacterial Pool. The test is described as follows: Dow time-kill test in pH 7.4 hand dish-washing liquid, with synergy index (Kull). The test is classed as cell-based. To be noted: for Concentration required to achieve >=4 Log bacterial counts reduction of tested biocides: 37° C., pool of seven bacteria 1×10^6~1×10^7 CFU/ml in pH 7.4 hand dish-washing liquid, active ingredient basis, unit ppm from b8, not given.

On to `O=CCCCC=O` [Glutaraldehyde, Pentane-1,5-dial], for which the “Concentration required to achieve >=4 Log bacterial counts reduction of tested biocides” value (24 h) came out at 100 ppm. For the same compound, under “Table 4, Bacterial Pool, 24 hours, glutaraldehyde alone (QA) or in the mixture (Qa), read-out: Minimum Inhibitory Concentration (ppm) Glut”, the Concentration for >=4 log bacterial kill amounted to 100 µg/mL. The “Minimum Inhibitory Concentration (ppm) Glut” value (Table 5, Bacterial Pool, 24 hours, glutaraldehyde alone (QA) or in the mixture (Qa)) was 100 ppm.

As for `Oc1ccccc1-c1ccccc1.[Na]` [SOPP alone, sodium orthophenylphenol], the “Concentration required to achieve >=4 Log bacterial counts reduction of tested biocides” value (24 h) was 358.5 ppm. Under “24 h, read-out: Minimum Inhibitory Concentration (ppm) SOPP”, the Concentration for >=4 log bacterial kill was found to be 358 µg/mL. The “Minimum Inhibitory Concentration (ppm) SOPP” value (Table 5, Bacterial Pool, 24 hours, SOPP alone (QB) or in the mixture (Qb)) is given as 358.5 ppm.
